How the values were obtained:
Assay in all cases: biochemical
Settings in all cases: read-out: % inhibition mean (Z'Lyte)
FRK (PTK5) = FRK (PTK5) (Homo sapiens, UniProt P42685)
NTRK1 (TRKA) = NTRK1 (TRKA) (Homo sapiens, UniProt P04629)
CSNK1G3 (CK1 gamma 3) = CSNK1G3 (CK1 gamma 3) (Homo sapiens, UniProt Q9Y6M4)
MAPK7 (ERK5) = MAPK7 (ERK5) (Homo sapiens, UniProt Q13164)
MAP3K8 (COT) = MAP3K8 (COT) (Homo sapiens, UniProt P41279)
ADRBK2 (GRK3) = ADRBK2 (GRK3) (Homo sapiens, UniProt P35626)
RET = RET (Homo sapiens, UniProt P07949)
CAMK1D (CaMKI delta) = CAMK1D (CaMKI delta) (Homo sapiens, UniProt Q8IU85)
CAMK1D (CaMKI delta), sequence (Q8IU85 whole entry): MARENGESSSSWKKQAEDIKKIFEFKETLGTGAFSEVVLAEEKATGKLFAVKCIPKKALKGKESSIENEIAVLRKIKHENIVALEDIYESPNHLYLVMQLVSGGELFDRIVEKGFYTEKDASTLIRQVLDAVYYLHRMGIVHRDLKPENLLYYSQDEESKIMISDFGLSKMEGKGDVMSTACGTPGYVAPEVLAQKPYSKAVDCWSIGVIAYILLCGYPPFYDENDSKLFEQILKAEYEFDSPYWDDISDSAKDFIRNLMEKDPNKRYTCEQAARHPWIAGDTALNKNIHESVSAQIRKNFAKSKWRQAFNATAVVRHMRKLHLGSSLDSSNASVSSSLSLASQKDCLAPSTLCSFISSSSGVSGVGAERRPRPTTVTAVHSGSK

SRMS (Srm) = SRMS (Srm) (Homo sapiens, UniProt Q9H3Y6)
SRC = SRC (Homo sapiens, UniProt P12931)
SRC, sequence (P12931 whole entry): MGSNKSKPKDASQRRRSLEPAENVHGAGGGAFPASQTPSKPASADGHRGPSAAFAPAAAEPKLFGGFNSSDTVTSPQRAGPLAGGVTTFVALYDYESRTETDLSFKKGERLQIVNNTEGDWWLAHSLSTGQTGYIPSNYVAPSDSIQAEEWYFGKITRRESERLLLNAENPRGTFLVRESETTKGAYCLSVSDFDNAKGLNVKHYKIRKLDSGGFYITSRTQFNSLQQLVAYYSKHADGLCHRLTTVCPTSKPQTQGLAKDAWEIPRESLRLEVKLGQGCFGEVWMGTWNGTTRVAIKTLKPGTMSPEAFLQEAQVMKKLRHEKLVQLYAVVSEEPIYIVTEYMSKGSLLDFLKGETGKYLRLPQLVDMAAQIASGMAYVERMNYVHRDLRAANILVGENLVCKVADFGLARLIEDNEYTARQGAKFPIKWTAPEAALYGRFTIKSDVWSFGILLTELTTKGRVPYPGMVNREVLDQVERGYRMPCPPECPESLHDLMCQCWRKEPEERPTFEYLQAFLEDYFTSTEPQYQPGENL

SGKL (SGK3) = SGKL (SGK3) (Homo sapiens, UniProt Q96BR1)
FER = FER (Homo sapiens, UniProt P16591)
ERBB2 (HER2) = ERBB2 (HER2) (Homo sapiens, UniProt P04626)
ERBB2 (HER2), sequence (P04626 whole entry): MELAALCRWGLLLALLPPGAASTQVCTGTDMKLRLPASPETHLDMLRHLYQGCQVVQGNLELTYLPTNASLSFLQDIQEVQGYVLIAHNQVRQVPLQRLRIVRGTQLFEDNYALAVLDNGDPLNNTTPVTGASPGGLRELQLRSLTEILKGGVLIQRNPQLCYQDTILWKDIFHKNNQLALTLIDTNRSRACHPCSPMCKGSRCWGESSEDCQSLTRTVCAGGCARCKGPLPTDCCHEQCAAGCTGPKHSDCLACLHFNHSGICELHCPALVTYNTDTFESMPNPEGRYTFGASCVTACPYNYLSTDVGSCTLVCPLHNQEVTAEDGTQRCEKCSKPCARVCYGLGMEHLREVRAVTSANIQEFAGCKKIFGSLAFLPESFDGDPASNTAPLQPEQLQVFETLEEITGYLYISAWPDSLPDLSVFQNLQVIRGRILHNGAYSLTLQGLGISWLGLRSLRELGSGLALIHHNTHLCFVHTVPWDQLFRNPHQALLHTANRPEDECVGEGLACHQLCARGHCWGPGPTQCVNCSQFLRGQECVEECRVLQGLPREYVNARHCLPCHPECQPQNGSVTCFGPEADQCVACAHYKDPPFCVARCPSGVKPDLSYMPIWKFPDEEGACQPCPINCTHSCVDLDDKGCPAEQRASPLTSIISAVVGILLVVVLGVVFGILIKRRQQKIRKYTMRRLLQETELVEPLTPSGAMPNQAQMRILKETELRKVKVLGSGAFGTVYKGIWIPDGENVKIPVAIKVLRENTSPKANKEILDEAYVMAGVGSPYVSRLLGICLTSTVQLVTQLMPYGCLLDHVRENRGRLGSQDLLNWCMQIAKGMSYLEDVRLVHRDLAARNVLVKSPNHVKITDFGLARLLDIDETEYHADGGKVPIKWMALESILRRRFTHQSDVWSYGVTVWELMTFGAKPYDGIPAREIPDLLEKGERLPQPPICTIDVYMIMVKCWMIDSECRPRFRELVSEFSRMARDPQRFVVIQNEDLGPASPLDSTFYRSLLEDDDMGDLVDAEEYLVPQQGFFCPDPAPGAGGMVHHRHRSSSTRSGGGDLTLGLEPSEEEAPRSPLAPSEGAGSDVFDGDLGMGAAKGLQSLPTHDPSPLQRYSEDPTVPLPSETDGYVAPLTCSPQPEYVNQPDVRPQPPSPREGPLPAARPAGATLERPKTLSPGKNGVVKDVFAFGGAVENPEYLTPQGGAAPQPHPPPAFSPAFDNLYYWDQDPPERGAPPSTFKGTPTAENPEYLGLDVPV

SGK (SGK1) = SGK (SGK1) (Homo sapiens, UniProt O00141)
PAK7 (KIAA1264) = PAK7 (KIAA1264) (Homo sapiens, UniProt Q9P286)
MATK (HYL) = MATK (HYL) (Homo sapiens, UniProt P42679)
MATK (HYL), sequence (P42679 whole entry): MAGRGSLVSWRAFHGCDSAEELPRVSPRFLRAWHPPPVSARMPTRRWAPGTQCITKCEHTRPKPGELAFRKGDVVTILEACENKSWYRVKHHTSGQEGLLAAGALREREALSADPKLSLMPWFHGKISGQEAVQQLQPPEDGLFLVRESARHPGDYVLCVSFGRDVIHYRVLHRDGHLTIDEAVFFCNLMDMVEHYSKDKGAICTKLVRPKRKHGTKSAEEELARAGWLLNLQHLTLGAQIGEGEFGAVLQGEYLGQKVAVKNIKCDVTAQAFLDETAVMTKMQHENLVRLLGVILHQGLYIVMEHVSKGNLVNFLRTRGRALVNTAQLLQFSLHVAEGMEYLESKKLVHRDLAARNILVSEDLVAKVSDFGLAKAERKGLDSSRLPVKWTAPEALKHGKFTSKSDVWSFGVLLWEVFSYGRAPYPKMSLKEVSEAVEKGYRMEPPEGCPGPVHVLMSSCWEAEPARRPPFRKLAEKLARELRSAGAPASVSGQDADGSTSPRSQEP

EGFR (ErbB1) G719S = EGFR (ErbB1) G719S (Homo sapiens, UniProt P00533, G719S)
EGFR (ErbB1) G719S, sequence (P00533 whole entry G719S): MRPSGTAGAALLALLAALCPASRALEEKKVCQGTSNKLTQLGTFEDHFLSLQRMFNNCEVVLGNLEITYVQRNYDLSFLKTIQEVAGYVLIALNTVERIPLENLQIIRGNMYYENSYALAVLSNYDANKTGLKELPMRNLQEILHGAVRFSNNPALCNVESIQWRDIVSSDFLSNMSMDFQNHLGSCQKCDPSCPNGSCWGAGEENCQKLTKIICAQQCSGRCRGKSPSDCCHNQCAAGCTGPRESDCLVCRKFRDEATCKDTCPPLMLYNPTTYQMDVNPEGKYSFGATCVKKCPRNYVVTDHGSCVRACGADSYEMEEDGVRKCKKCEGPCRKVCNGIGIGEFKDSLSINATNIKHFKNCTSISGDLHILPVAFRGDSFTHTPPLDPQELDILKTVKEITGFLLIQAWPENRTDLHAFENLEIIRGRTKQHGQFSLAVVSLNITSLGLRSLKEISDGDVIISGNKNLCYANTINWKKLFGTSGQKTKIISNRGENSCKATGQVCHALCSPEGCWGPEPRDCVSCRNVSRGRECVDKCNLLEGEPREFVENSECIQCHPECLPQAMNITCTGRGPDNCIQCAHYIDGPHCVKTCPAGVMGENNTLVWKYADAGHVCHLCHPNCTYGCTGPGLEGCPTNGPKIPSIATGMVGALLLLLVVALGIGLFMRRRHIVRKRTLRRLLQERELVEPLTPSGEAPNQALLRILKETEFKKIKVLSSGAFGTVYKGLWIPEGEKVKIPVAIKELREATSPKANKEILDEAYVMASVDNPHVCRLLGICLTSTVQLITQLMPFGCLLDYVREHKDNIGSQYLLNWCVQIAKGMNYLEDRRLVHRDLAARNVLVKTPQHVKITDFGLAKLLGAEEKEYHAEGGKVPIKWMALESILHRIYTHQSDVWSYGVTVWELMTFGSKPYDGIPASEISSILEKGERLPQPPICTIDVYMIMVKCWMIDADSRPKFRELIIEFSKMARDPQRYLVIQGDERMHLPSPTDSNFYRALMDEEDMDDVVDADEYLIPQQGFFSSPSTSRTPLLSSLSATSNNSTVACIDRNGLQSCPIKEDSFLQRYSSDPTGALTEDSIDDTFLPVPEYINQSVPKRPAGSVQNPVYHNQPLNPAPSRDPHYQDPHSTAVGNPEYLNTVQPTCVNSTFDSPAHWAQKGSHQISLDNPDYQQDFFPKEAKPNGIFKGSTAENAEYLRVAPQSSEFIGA

AMPK A2/B1/G1 = AMPK A2/B1/G1 (Homo sapiens, UniProt P54646)
ZAP70 = ZAP70 (Homo sapiens, UniProt P43403)
TNK1 = TNK1 (Homo sapiens, UniProt Q13470)
AXL = AXL (Homo sapiens, UniProt P30530)
NTRK2 (TRKB) = NTRK2 (TRKB) (Homo sapiens, UniProt Q16620)
LCK = LCK (Homo sapiens, UniProt P06239)
GRK7 = GRK7 (Homo sapiens, UniProt Q8WTQ7)
STK23 (MSSK1) = STK23 (MSSK1) (Homo sapiens, UniProt Q9UPE1)
STK23 (MSSK1), sequence (Q9UPE1 whole entry): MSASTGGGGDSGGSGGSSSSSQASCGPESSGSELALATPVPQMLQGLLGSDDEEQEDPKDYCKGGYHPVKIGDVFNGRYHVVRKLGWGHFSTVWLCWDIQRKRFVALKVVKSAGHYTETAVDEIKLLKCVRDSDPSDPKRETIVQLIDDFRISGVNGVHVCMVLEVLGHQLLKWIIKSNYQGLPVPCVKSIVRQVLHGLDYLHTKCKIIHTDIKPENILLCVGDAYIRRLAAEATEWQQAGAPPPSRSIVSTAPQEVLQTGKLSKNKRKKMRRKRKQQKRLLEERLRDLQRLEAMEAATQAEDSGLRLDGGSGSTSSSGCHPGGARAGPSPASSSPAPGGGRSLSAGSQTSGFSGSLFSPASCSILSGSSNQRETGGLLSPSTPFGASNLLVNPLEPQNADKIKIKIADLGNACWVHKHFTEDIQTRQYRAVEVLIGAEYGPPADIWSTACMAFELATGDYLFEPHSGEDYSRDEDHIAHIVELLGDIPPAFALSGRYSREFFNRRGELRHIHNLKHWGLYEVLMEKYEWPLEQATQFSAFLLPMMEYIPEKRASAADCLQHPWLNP

RPS6KA6 (RSK4) = RPS6KA6 (RSK4) (Homo sapiens, UniProt Q9UK32)
CDKL5 = CDKL5 (Homo sapiens, UniProt O76039)
CSNK1A1L = CSNK1A1L (Homo sapiens, UniProt Q8N752)
AKT3 (PKB gamma) = AKT3 (PKB gamma) (Homo sapiens, UniProt Q9Y243)

MAP3K8 (COT), sequence (P41279 whole entry): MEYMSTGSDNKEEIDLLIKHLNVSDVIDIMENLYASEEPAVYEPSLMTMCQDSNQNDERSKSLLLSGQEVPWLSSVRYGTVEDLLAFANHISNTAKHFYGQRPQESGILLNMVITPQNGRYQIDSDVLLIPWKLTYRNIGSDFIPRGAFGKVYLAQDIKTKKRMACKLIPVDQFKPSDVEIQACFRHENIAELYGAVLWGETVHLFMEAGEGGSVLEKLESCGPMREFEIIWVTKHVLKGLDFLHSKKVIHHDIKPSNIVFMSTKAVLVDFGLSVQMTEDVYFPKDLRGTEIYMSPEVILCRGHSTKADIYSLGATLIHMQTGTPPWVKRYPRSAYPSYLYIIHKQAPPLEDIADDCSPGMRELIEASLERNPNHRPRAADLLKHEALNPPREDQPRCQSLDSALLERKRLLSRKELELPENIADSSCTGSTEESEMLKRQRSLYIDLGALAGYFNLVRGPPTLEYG

COc1ccc2nc3cc(Cl)ccc3c(Nc3cc(CN4CCCC4)c(O)c(CN4CCCC4)c3)c2n1 [Pyronaridine, 4-[(7-Chloro-2-methoxybenzo[b][1,5]naphthyridin-10-yl)amino]-2,6-bis(1-pyrrolidinylmethyl)phenol phosphate (1:4)]
inhibition at 1 µM (FRK (PTK5)): -2%
inhibition at 1 µM (NTRK1 (TRKA)): 19%
inhibition at 1 µM (CSNK1G3 (CK1 gamma 3)): 2%
inhibition at 1 µM (MAPK7 (ERK5)): 5%
inhibition at 1 µM (MAP3K8 (COT)): -6%
inhibition at 1 µM (ADRBK2 (GRK3)): -5%
inhibition at 1 µM (RET): 5%
inhibition at 1 µM (CAMK1D (CaMKI delta)): -26%
inhibition at 1 µM (SRMS (Srm)): 2%
inhibition at 1 µM (SRC): 14%
inhibition at 1 µM (SGKL (SGK3)): 0%
inhibition at 1 µM (FER): -21%
inhibition at 1 µM (ERBB2 (HER2)): 2%
inhibition at 1 µM (SGK (SGK1)): 4%
inhibition at 1 µM (PAK7 (KIAA1264)): -5%
inhibition at 1 µM (MATK (HYL)): -2%
inhibition at 1 µM (EGFR (ErbB1) G719S): -5%
inhibition at 1 µM (AMPK A2/B1/G1): 2%
inhibition at 1 µM (ZAP70): 4%
inhibition at 1 µM (TNK1): -3%
inhibition at 1 µM (AXL): 1%
inhibition at 1 µM (NTRK2 (TRKB)): 1%
inhibition at 1 µM (LCK): 12%
inhibition at 1 µM (GRK7): 4%
inhibition at 1 µM (STK23 (MSSK1)): -2%
inhibition at 1 µM (RPS6KA6 (RSK4)): 4%
inhibition at 1 µM (CDKL5): 4%
inhibition at 1 µM (CSNK1A1L): 3%
inhibition at 1 µM (AKT3 (PKB gamma)): 7%
